In one test the test system is SL1 Δbulge RNA. The class given is binding, SARS-CoV-2.
In a further test the target is SL1 wt RNA. Kind of test: NMR-based KD estimation, ligand-detected 1D-1H titration. The class given is binding, SARS-CoV-2. The note with it: Suppl. Table 7; for Kd: read-out: KDest.
Test [1] concerns SARS-CoV-2 SL1 RNA (SL1 wt). The class given is binding. The settings on record: for wLOGSY factor / T2 reduction [%] / CSP [Hz]: 10 μM SL1 wt, 200 μM ligand; for wLOGSY factor / T2 reduction [%]: pH 6.2; for T2 reduction [%]: CPMG 100 vs 5 ms; for Rank: FBS ranking from summed ranks of CSP, wLOGSY and T2 results; for CSP [Hz]: ligand 1H CSP, [RNA]:[ligand] 1:20, pH 6.2; for FBS binding to SL1, in words: ligand-detected NMR.

[2] abbreviates: ligand constant at 100, SL1 wt RNA concentration 0-250.
The mark [3] stands for this setting: ligand constant at 100, SL1 wt RNA concentration 0-200.

Data on 16 molecules can be found in paper PMC12356538, “Targeting the SARS-CoV‑2 RNA Translation Initiation Element SL1 by Molecules of Low Molecular Weight” (Journal of the American Chemical Society, 2025).

Each structure is given as a SMILES string. Like-named read-outs stand apart in the source and are kept apart here.

Consider `CNC(=N)Nc1nc2ccc(O)cc2s1` [A.9], for which the “FBS result (CSP, wLOGSY, T2 reduction) in words” value with SL1 Δbulge RNA is “no effects”. Moreover, on SL1 wt RNA (setting [2]), the Kd was 436 µM. In addition, in test [1], the wLOGSY factor is 0.66, the “T2 reduction [%]” value stood at 72.21% and the “CSP [Hz]” value was determined as 3.67 Hz. Also, the Rank in test [1] (SL1 wt) is reported as 39.

For the molecule `COc1cc(OC)c2nc(NC(=O)CN3CCC[C@@H](N)C3)sc2c1` [A.55], the “FBS result (CSP, wLOGSY, T2 reduction) in words” value in the test on SL1 Δbulge RNA is listed as “no effects”. Also, the Kd at SL1 wt RNA (setting [3]) is 81.1 µM. Further, in test [1], the wLOGSY factor came out at 0.00, the “T2 reduction [%]” value worked out at 100.00% and the “CSP [Hz]” value came to 34.05 Hz. The molecule also had a Rank in test [1] (SL1 wt) of 5.

For the molecule `COc1ccc2nc(NC(=O)CN3CCNCC3)sc2c1` [A.45], in the test with SL1 Δbulge RNA, the “CSP [Hz]” value turned out to be 7.08 Hz, the Rank amounted to 7, the “T2 reduction [%]” value was 60.81% and the wLOGSY factor stood at 0.00. In addition, the Kd at SL1 wt RNA (setting [3]) is 162 µM. In addition, in test [1], the wLOGSY factor worked out at 1.54, the “T2 reduction [%]” value worked out at 86.71% and the “CSP [Hz]” value was determined as 24.81 Hz. For the same molecule, in test [1] (SL1 wt), the Rank was 7 and the “FBS binding to SL1, in words” value is given as “positive effect on SL1 binding”.

In the case of `COc1cc(OC)c2nc(NC(=O)CN3CCN(C)CC3)sc2c1` [A.56], in the test on SL1 Δbulge RNA, the “FBS result (CSP, wLOGSY, T2 reduction) in words” value was “no effects”. Also, the Kd on SL1 wt RNA (setting [3]) was 75.3 µM. Further, in test [1], the wLOGSY factor is on record as 0.00, the “T2 reduction [%]” value is reported as 100.00% and the “CSP [Hz]” value stood at 31.95 Hz. The Rank in test [1] (SL1 wt) is on record as 7.

Regarding `COc1cc(OC)c2nc(NC(=O)CN3CCC[C@H](N)C3)sc2c1` [A.54], in the test with SL1 Δbulge RNA, the “CSP [Hz]” value came to 3.60 Hz, the Rank came out at 5, the “T2 reduction [%]” value came out at 88.68% and the wLOGSY factor turned out to be 0.00. The Kd on SL1 wt RNA (setting [3]) is 109 µM. Also, in test [1], the wLOGSY factor was determined as 0.00, the “T2 reduction [%]” value turned out to be 100.00% and the “CSP [Hz]” value was 34.62 Hz. The Rank in test [1] (SL1 wt) stood at 4.

Consider `COc1ccc(-c2nnc(NC(=O)CN3CCC[C@H](N)C3)s2)cc1OC` [A.58], for which, in the test on SL1 Δbulge RNA, the “CSP [Hz]” value is given as 9.24 Hz, the Rank is listed as 2, the “T2 reduction [%]” value is reported as 73.56% and the wLOGSY factor is listed as 0.00. Also, the Kd at SL1 wt RNA (setting [3]) was 77.5 µM. Also, in test [1], the wLOGSY factor is listed as 0.00, the “T2 reduction [%]” value is given as 96.61% and the “CSP [Hz]” value was found to be 39.18 Hz. Besides, in test [1] (SL1 wt), the Rank came to 10 and the “scoring in the FBS ranking compared with lead A” value is about 4 fold.

`CCN(CCN[C@@H]1CCCN(CC(=O)Nc2nc3ccc(OC)cc3s2)C1)c1cccc(O)c1` [A.51]: in the test on SL1 Δbulge RNA, the “CSP [Hz]” value was 4.44 Hz, the Rank is on record as 10, the “T2 reduction [%]” value was found to be 42.57% and the wLOGSY factor is listed as 0.00. Further, on SL1 wt RNA (setting [3]), the Kd is 740 µM. In test [1], the wLOGSY factor amounted to 0.00, the “T2 reduction [%]” value was determined as 88.75% and the “CSP [Hz]” value was 19.56 Hz. In test [1] (SL1 wt), this molecule registered a Rank of 25.

Consider `COc1ccc2nc(NC(=O)CN3CCC[C@H](NCCN(C)c4cccc(O)c4)C3)sc2c1` [A.48], for which, in the test with SL1 Δbulge RNA, the “CSP [Hz]” value was determined as 2.16 Hz, the Rank worked out at 9, the “T2 reduction [%]” value was found to be 0.59% and the wLOGSY factor came out at 10.82. In addition, the Kd on SL1 wt RNA (setting [3]) was 304 µM. In addition, in test [1], the wLOGSY factor is 0.00, the “T2 reduction [%]” value is reported as 74.30% and the “CSP [Hz]” value is listed as 17.28 Hz. In test [1] (SL1 wt), this molecule returned a Rank of 32.

In the case of `COc1cc(OC)c2nc(NC(=O)CN3CCNCC3)sc2c1` [A.57], in the test with SL1 Δbulge RNA, the “CSP [Hz]” value is reported as 4.92 Hz, the Rank is reported as 8, the “T2 reduction [%]” value is 47.32% and the wLOGSY factor is reported as 1.07. Also, the Kd on SL1 wt RNA (setting [3]) is 83.7 µM. In addition, in test [1], the wLOGSY factor was determined as 0.00, the “T2 reduction [%]” value was 100.00% and the “CSP [Hz]” value is reported as 32.79 Hz. The molecule further came in with a Rank in test [1] (SL1 wt) of 6.

With `COc1cc(OC)c2nc(NC(=O)CN(C)C)sc2c1` [A.15], in the test with SL1 Δbulge RNA, the “CSP [Hz]” value came to 9.18 Hz, the Rank worked out at 2, the “T2 reduction [%]” value turned out to be 84.62% and the wLOGSY factor stood at 0.47. Moreover, at SL1 wt RNA (setting [3]), the Kd is 108 µM. In test [1], the wLOGSY factor was 2.66, the “T2 reduction [%]” value was determined as 36.00% and the “CSP [Hz]” value is 31.92 Hz. In addition, the Rank in test [1] (SL1 wt) is listed as 16. For the same molecule, the “CSP values relative to A.2” value in test [1] (ligand CSP, SL1 wt) is recorded as 2–3 times.

Take `CCN(CCN[C@H]1CCCN(CC(=O)Nc2nc3ccc(OC)cc3s2)C1)c1cccc(O)c1` [A.49]: the “FBS result (CSP, wLOGSY, T2 reduction) in words” value in the test on SL1 Δbulge RNA is given as “no effects”. Moreover, on SL1 wt RNA (setting [3]), the Kd is 530 µM. Further, in test [1], the wLOGSY factor worked out at 0.00, the “T2 reduction [%]” value was 72.85% and the “CSP [Hz]” value was determined as 15.15 Hz. This molecule showed a Rank in test [1] (SL1 wt) of 34.

In the case of `COc1ccc2nc(NC(=O)CN3CCC[C@@H](N)C3)sc2c1` [A.37], the “FBS result (CSP, wLOGSY, T2 reduction) in words” value with SL1 Δbulge RNA is on record as “no effects”. Moreover, on SL1 wt RNA (setting [3]), the Kd is 171 µM. For the same molecule, in test [1], the wLOGSY factor was determined as 1.01, the “T2 reduction [%]” value amounted to 100.00% and the “CSP [Hz]” value is listed as 24.72 Hz. In addition, in test [1] (SL1 wt), the Rank is 3 and the “FBS binding to SL1, in words” value is “positive effect on SL1 binding”.

Regarding `COc1ccc(-c2nnc(NC(=O)CN3CCC[C@@H](N)C3)s2)cc1OC` [A.59], in the test with SL1 Δbulge RNA, the “CSP [Hz]” value is 9.18 Hz, the Rank is listed as 4, the “T2 reduction [%]” value is 65.47% and the wLOGSY factor came to 0.00. Besides, the Kd on SL1 wt RNA (setting [3]) was 90.7 µM. In addition, in test [1], the wLOGSY factor stood at 0.00, the “T2 reduction [%]” value is recorded as 98.00% and the “CSP [Hz]” value is recorded as 38.70 Hz. In test [1] (SL1 wt), the Rank turned out to be 10 and the “scoring in the FBS ranking compared with lead A” value is given as about 4 fold.

For the molecule `CC(C)(C)C(=O)Nc1nc2ccc(Br)cc2s1` [A.8], the “FBS result (CSP, wLOGSY, T2 reduction) in words” value with SL1 Δbulge RNA is listed as “no effects”. The Kd at SL1 wt RNA (setting [2]) was 254 µM. Besides, the “FBS binding to SL1, in words” value in test [1] (SL1 wt) was “only minor effects”.

With `COc1ccc2nc(NC(=O)CN3CCC[C@@H](NCCN(C)c4cccc(O)c4)C3)sc2c1` [A.50], in the test with SL1 Δbulge RNA, the “FBS result (CSP, wLOGSY, T2 reduction) in words” value is reported as “no effects”. Besides, at SL1 wt RNA (setting [3]), the KDest result is on record as “ambiguous”. Further, in test [1], the wLOGSY factor was 0.00, the “T2 reduction [%]” value is 72.85% and the “CSP [Hz]” value is recorded as 15.17 Hz. This molecule also came in with a Rank in test [1] (SL1 wt) of 33.

For `COc1ccc2nc(NC(=O)CN(C)C3CC(C)(C)NC(C)(C)C3)sc2c1` [A.44], in the test with SL1 Δbulge RNA, the “FBS result (CSP, wLOGSY, T2 reduction) in words” value was “no effects”. In test [1], the wLOGSY factor stood at 1.19, the “T2 reduction [%]” value is listed as 76.80% and the “CSP [Hz]” value stood at 12.99 Hz. In test [1] (SL1 wt), this molecule returned a Rank of 27.
